According to US9518038B2, “Condensation product of theanine derivative and carboxylic acid coumarin derivative, its intermediate, preparation method and use thereof” (SHANDONG YINGDONG YINGHAO BIOTECHNOLOGY, INC., priority 2012, dated 2016):
Marks after values point to notes of the source that are not given here.

Experiments:
[1] = tested on: human prostate cancer cells PC-3; experiment: MTT growth inhibition, PC-3 cells; assay type: cell-based; settings: 72 h after treatment, read-out: Drug concentration (IC50) at which 50% cancer cells survived
Text: (§1) Cell lines and cell culture: human lung cancer cells A549 and H460, human breast cancer cells MCF-7 and MDA-MB-231, human gastric cancer cells BGC-823, human prostate cancer cells PC-3, human chronic leukemia cells K562, human lymphoma cells U937, human liver cancer cells SMMC7721 and HepG2, human colon cancer cells HT29, human pancreatic cancer cells PANC-1 and BxPC3, human cervical cancer Hela cell lines, human brain tumor cells Daoy, human neuroma cells D54 and human oral epidermoid cancer cells KBV200 line with strong drug resistance, mouse melanoma cells B16, and highly metastatic Lewis lung cancer cell lines were purchased from American Type Culture Collection of the U.S. These cells were cultured with DMEM and RPMI-1640 culture solutions separately.
(§2) The procedure was as follows:
(§3) (1) 0.25% trypsin was used to digest cancer cells in a logarithmic growth phase to prepare a single-cell suspension, the concentration of cells was adjusted to 5×10^4/mL, and the adjusted suspension was inoculated into a 96-well culture plate with 100 μl per well;
(§4) (2) The culture plate was transferred into a 37° C. incubator with a saturated humidity and 5% of CO2 and cultured for 24 h; the compounds and the intermediates thereof obtained in embodiments 1-7 and the compound as represented by formula (IIIa) or the positive control anti-cancer drug with the concentration of 1-1000 μM/L were added to enable the final concentration to be 0.1-1500 μM/L. Control wells (only added with 200 μl of cell suspension) and drug-free blank control wells (containing the solvent of 0.01% DMSO) were set, each group included 8 wells, and the plate was placed into the 37° C. incubator with saturated humidity and 5% of CO2 for culturing;
(§5) (3) The 96-well plate was taken out at 48 h and 72 h after dosing, the original culture medium was carefully removed by suction, 100 μl of serum-free DMEM culture medium and 10 μl of MTT (5 mg/mL) solution were added in each well. The plate was continuously cultured for another 4 h and then the culture was terminated;
(§6) (4) The supernatant in the wells was carefully removed by suction, each well was added with 150 μl of DMSO and shaked at room temperature for 10-15 min to fully dissolve crystals.
(§7) (5) Colorimetric analysis: the wavelength was selected as 570 nm, the light absorbance (A value) of each well was determined on the microplate reader and the results were recorded; the experiment was repeated for three times;
(§8) (6) the experimental results were calculated according to the following formula: relative survival rate=(A value of each experimental group/A value of cell control group)×100%
(§9) Calculation of median-effect concentration (IC50, namely the drug concentration at which the inhibition rate is 50%, also known as half inhibitory concentration):
(§10) IC50 of the detected component was calculated by using a regression equation.

[2] = tested on: Caski human cervical cancer cells; experiment: MTT growth inhibition, Caski cells; assay type: cell-based; settings: Ca-Ski, 72 h after treatment, read-out: Drug concentration (IC50) at which 50% cancer cells survived
[3] = tested on: human breast cancer cells MDA-MB-231; experiment: MTT growth inhibition, MDA-MB-231 cells; assay type: cell-based; settings: 72 h after treatment, read-out: Drug concentration (IC50) at which 50% cancer cells survived
Text: as §1, §2, §3, §4, §5, §6, §7, §8, §9, §10

Nuclear β-catenin = experiment: Western Blotting, nuclear β-catenin level; assay type: cell-based; settings: human liver cancer cells, Lewis lung cancer cells and other cancer cell lines and tumor tissues, read-out: Effective concentration (IC50) for inhibition of Nuclear β-catenin
Text: (§11) Antibodies: primary antibodies of VEGFR, EGFR, c-Met, K-Ras, H-Ras, Akt, NF-κB, Cyclin D1, ER-alpha, Dvl-1, Dvl-2, Dvl-3, MMP-9, MMP2, β-catenin, Bcl-2, Bax, p53, p21, E-cadherin and Caspase3 protein, purchased from American Cell Signaling Technology Company and Santa Cruz Technology Company; and H3 acetylation, H4 acetylation and HDAC (HDAC3, HDAC4 and the like) Antibody Sample Kits, purchased from Cell Signaling Technology Company of the U.S.
(§12) (3) polyacrylamide gel electrophoresis (SDS-PAGE): an equal amount of protein lysate sample was used to separate protein, film transfer, and blocking, treated with appropriate primary antibodies and secondary antibodies in sequence, and the film was washed, then the color was developed with ECL kit, and a blot protein band was detected by exposure of an X-ray film; and a Gel-Pro Analyzer was used for quantitative analysis of gray degree, optical density value of the control group and the drug treatment group in various concentration were respectively compared with that of internal reference, the obtained ratios were respectively compared with the control group, and the protein expression level was semi-quantified.

EZH2 = molecular target: T1, EZH2 (Homo sapiens, UniProt Q15910); experiment: EZH2 enzyme activity in protein extracts of human tumor xenografts of treated mice (EZH2 Assay Kit); assay type: in vivo; settings: tumors excised 6 h after medication, SAHA 25 mg/kg
T1 construct: the EZH2 enzyme was replaced with tumor protein extracts in each group; from tissue; host or cells: human tumour xenografts excised from treated nude mice
T1 sequence (Q15910 whole entry): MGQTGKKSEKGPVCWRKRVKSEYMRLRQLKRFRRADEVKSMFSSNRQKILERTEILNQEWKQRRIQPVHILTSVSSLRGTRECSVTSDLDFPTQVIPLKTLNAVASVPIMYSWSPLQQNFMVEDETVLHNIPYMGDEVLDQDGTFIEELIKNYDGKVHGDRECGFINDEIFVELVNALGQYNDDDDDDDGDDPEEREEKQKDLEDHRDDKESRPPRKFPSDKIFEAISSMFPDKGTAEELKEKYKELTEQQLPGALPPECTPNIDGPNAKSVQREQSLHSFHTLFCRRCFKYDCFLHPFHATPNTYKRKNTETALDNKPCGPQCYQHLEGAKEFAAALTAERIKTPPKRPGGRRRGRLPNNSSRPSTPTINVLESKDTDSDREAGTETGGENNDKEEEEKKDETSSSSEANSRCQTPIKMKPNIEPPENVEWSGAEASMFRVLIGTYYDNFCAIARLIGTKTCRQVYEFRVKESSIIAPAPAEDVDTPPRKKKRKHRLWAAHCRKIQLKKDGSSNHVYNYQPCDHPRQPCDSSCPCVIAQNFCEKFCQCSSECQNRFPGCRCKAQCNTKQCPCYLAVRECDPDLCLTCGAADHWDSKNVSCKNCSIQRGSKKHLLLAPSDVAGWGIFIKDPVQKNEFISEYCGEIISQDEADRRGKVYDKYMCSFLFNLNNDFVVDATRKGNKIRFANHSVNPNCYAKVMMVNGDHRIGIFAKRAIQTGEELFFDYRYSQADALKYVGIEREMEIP
T1 sequence (O75530 whole entry partner): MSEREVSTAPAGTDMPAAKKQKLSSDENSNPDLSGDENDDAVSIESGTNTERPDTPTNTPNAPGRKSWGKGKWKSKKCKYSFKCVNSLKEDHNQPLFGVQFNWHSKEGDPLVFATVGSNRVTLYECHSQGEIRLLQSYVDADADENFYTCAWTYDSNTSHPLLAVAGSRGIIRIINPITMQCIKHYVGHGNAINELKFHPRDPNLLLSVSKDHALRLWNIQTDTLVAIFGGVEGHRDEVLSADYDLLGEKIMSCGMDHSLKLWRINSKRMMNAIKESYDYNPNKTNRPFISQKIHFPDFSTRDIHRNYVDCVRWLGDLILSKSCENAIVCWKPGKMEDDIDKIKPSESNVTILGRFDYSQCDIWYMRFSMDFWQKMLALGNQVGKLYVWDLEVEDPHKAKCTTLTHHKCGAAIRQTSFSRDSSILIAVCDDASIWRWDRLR
T1 sequence (Q15022 whole entry partner): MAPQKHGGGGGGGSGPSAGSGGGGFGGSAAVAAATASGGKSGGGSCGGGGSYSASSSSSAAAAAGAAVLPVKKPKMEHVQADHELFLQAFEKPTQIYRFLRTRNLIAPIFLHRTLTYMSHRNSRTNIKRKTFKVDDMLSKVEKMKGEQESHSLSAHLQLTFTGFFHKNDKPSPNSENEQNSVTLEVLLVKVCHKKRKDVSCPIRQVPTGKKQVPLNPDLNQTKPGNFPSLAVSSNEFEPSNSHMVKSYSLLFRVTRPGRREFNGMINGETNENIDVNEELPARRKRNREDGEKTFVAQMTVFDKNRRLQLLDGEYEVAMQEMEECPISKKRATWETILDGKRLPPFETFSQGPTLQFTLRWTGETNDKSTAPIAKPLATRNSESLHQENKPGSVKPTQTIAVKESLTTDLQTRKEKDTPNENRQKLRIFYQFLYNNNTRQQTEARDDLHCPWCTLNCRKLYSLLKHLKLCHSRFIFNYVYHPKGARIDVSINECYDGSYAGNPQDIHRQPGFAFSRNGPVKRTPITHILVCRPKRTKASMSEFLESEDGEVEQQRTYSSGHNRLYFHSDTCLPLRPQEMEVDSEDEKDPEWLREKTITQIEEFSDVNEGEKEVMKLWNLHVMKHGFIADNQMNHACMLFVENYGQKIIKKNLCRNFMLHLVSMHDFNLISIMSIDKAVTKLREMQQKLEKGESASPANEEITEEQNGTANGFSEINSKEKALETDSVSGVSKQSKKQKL

NF-κB = experiment: Western Blotting, NF-κB level; assay type: cell-based; settings: human liver cancer cells, Lewis lung cancer cells and other cancer cell lines and tumor tissues, read-out: Effective concentration (IC50) for inhibition of NF-κB
Text: as §11, §12

HDAC3 = HDAC3 enzyme activity in nuclear extracts of human tumor xenografts of treated mice; settings: first value of the pair HDAC3 and HDAC4, SAHA 25 mg/kg
Description: For the detection of the effect of the drugs on enzyme activity of EZH2 and HDAC of in-vivo tumors, the tumors were separately excised after 6 h of medication, total proteins and nucleoproteins were extracted separately to detect and analyze the activity of the enzyme.
(2) 50 μl of diluted sample solution was added into each reaction well, the plate was sealed with a plate-sealing film and reacted at room temperature for 30 min;
(3) the plate-sealing film was carefully peeled off, the liquid was removed, dried, 150 μl of washing liquid was added into each well, stood for 30 s, then the liquid was removed, repeated twice, and dried;
(4) 2 μl of HDAC enzyme or tumor tissue nuclear extracts was respectively uniformly mixed with 28 μl of diluted sample solution, added into the wells, the plate was sealed with the plate-sealing film and reacted at 37° C. for 60 min;
(5) the plate was washed for three times, wherein the operation was the same as that in (3); and a diluted antibody capture working solution was added into each reaction well according to 50 μl/well and reacted on a shaking bed at room temperature for 60 min;
(6) the plate was washed for four times, wherein the operation was the same as that in (3);
(7) a diluted antibody detection working solution was added into each reaction well according to 50 μl/well and reacted at room temperature for 30 min;
(8) the plate was washed for five times, wherein the operation was the same as that in (3);
a color developing agent was added according to 100 μl/well, and performed dark development for 2-10 min;
(9) 50 μl of stop solution was added into each well for stopping the reaction when the color in the well with a standard product turned blue with medium intensity, the color immediately turned yellow from blue after the addition;
(10) the light absorbance (OD value) of each well was measured in sequence at the wavelength of 450 nm; wherein the measurement should be performed within 15 min after addition of the stop solution; and

[4] = Fluorescent imaging in vivo and in vitro; assay type: physicochemical; settings: 60 mg/kg body weight/0.2 ml
Description: Fluorescent images and wavelength ranges of the compounds as obtained in embodiments 1-7 were determined according to the literature method (Chen Y, et al., 2-(3-{1-Carboxy-5-[(6-[18F]fluoro-pyridine-3-carbonyl)-amino]-pentyl}-ureido)-pentanedioic acid, [18F]DCFPyL, a PSMA-based PET imaging agent for prostate cancer. Clin Cancer Res, 2011, 17(24):7645-53), and the results were shown in Table 3 and FIG. 1.
2. Experimental procedure: For in-vitro fluorescent imaging and detection: the compounds Ia-Ih as obtained in embodiments 1-7 were prepared in 1.5 ml plastic centrifugal tubes into a solution with the concentration of 60 mg/0.2 ml, fluorescent signals and images were respectively detected and recorded with a multifunctional microplate reader and an animal in-vivo imaging instrument under the following excitation and emission wavelength conditions, and the obtained results were shown in Table 3 and FIG. 1 (small test tube photos); and for the detection of fluorescent images in-vivo: after 16 h of fasting treatment of the experimental animals (while drinking water was normally supplied), solutions of the compounds Ia-Ih as obtained in embodiments 1-7 were prepared according to a concentration of 60 mg/kg body weight/0.2 ml, and intraperitoneally administered to the animal, the fluorescent images were detected and recorded with the animal in-vivo imaging instrument under the following excitation and emission wavelength conditions, the obtained results were shown in FIG. 1 (animal in-vivo imaged photos); wherein, the experimental excitation wavelength range was 360 nm-590 nm; and the detection wavelength range was 410 nm-700 nm.

Akt = experiment: Western Blotting, Akt level; assay type: cell-based; settings: human liver cancer cells, Lewis lung cancer cells and other cancer cell lines and tumor tissues, read-out: Effective concentration (IC50) for inhibition of Akt
Text: as §11, §12

| SMILES | IC50 [1] [µM] | IC50 [2] [µM] | IC50 [3] [µM] | IC50 (Nuclear β-catenin) [µM] | decrease of EZH2 enzyme activity/inhibition rate (EZH2; A549 tumor grown in vivo) | decrease of EZH2 enzyme activity/inhibition rate (EZH2; MCF7 tumor grown in vivo) | decrease of EZH2 enzyme activity/inhibition rate (EZH2; MDA-MB231 tumor grown in vivo) | decrease of EZH2 enzyme activity/inhibition rate (EZH2; SMMC7721 tumor grown in vivo) | IC50 (NF-κB) [µM] | decrease of HDAC3 enzyme activity/inhibition rate (HDAC3; A549 tumor grown in vivo) [%* and] | decrease of HDAC3 enzyme activity/inhibition rate (HDAC3; MCF7 tumor grown in vivo) [%* and] | decrease of HDAC3 enzyme activity/inhibition rate (HDAC3; MDA-MB231 tumor grown in vivo) [%* and] | decrease of HDAC3 enzyme activity/inhibition rate (HDAC3; SMMC7721 tumor grown in vivo) [%* and] | Emission (fluorescent wavelength range detectable in vivo and in vitro) [4] | Excitation (fluorescent wavelength range detectable in vivo and in vitro) [4] | IC50 (Akt) [µM] |
| --- | --- | --- | --- | --- | --- | --- | --- | --- | --- | --- | --- | --- | --- | --- | --- | --- |
| CCNC(=O)CC[C@H](N)C(=O)OCC [Compound IIb, theanine ethyl ester] | 400 | 300 | 400 |  |  |  |  |  |  |  |  |  |  |  |  |  |
| CCNC(=O)CC[C@@H](NC(=O)c1cc2cc(Cl)cc(Cl)c2oc1=O)C(=O)OCC [Compound Ig, (R)-2-(6,8-dichloro-2-oxo-2H-benzopyran-3-carboxamido)-5-ethylamino-5-oxo-pentanoic ethyl ester] | 45 | 36 | 92 | < 100 | 57%*(A549)- | 65%*(MCF7) | 61%*(MDA-MB231) | 58%*(SMMC7721); | < 100 | 61 | 66 | 64 | 62 | 430-690 nm | 360-610 nm | < 70 |
| CCNC(=O)CC[C@@H](NC(=O)c1cc2cc(Br)cc(Br)c2oc1=O)C(=O)OCC [Compound Ih, (R)-2-(6,8-dibromo-2-oxo-2H-benzopyran-3-carboxamido)-5-ethylamino-5-oxo-pentanoic ethyl ester] | 87 | 53 | 98 | < 100 | 55%*(A549)- | 61%*(MCF7) | 59%*(MDA-MB231) | 56%*(SMMC7721); | < 100 | 57 | 64 | 62 | 60 | 430-690 nm | 360-610 nm | < 70 |
| CCNC(=O)CC[C@@H](NC(=O)c1cc2cc(Br)ccc2oc1=O)C(=O)OCC [Compound Id, (R)-2-(6-Br-2-oxo-2H-benzopyran-3-carboxamido)-5-ethylamino-5-oxo-pentanoic acid ethyl ester] | 110 | 101 | 91 | < 100 | 61%*(A549)- | 56%*(MCF7) | 58%*(MDA-MB231) | 59%*(SMMC7721); | < 80 | 71 | 60 | 63 | 65 | 430-670 nm | 36-610 nm | < 100 |
| CCNC(=O)CCC(NC(=O)c1cc2ccccc2oc1=O)C(=O)OCC (stereo not shown) [Compound Ib, ethyl 5-ethylamino-5-oxo-2-(2-oxo-2H-benzopyran-3-carboxamido)pentanoate] | 125 | 116 | 109 | < 120 | 54%*(A549)- |  |  | 57%*(SMMC-7721) | < 120 | 65 |  |  | 63 | 430-650 nm | 360-610 nm | < 120 |
| CCNC(=O)CCC(NC(=O)c1cc2ccccc2oc1=O)C(=O)OC (stereo not shown) [Compound Ia, methyl 5-ethylamino-5-oxo-2-(2-oxo-2H-benzopyran-3-carboxamido)pentanoate] | 146 | 210 | 240 | < 120 |  |  |  | 54%*(SMMC-7721) | < 125 |  |  |  | 60 | 430-650 nm | 360-610 nm | < 125 |
| CCNC(=O)CC[C@H](N)C(=O)OC [Compound IIa, theanine methyl ester] | 350 | 320 | 480 |  |  |  |  |  |  |  |  |  |  |  |  |  |
